Target: T1, human ADRA2B receptor (Homo sapiens, UniProt P18089)
T1 construct: expressed in transfected cells
T1 sequence (P18089 1-450): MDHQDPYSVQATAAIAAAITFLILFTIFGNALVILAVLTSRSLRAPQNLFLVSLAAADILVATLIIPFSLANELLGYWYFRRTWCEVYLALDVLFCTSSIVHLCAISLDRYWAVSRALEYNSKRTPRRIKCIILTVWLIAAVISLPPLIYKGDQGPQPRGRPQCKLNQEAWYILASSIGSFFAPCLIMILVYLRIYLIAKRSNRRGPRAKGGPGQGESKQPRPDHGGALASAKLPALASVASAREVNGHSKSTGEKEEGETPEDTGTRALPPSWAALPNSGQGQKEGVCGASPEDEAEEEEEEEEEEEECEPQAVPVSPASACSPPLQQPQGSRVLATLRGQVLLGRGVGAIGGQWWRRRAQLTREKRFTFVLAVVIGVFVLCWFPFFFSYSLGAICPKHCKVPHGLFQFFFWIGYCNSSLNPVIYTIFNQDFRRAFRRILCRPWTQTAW
Experiment: ADRA2B arrestin agonist assay
Assay type: cell-based
Settings: CHO-K1 cells stably expressing human ADRA2B; read-out: Beta-Arrestin - Human Alpha2B EC50
Outline: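 CHO-K1 cells stably expressing human ADRA2B, thawed from frozen stock and plated overnight, were treated with agonist for 2 h at 37 °C. Arrestin recruitment detected by luminescence after 2 h with detection reagents at room temperature.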

SMILES | EC50
Cc1cccc([C@@H](Cc2ccnc(CF)n2)c2c[nH]cn2)c1C [Compound 153, 4-[(R)-2-(4-imidazolyl)-2-(2,3-xylyl)ethyl]-2-(fluoromethyl) pyrimidine] | < 10 nM
Cc1cccc(C(Cc2ccnc(CO)n2)c2c[nH]cn2)c1F (centres unmarked) [Compound 156, {4-[2-(2-fluoro-3-tolyl)-2-(4-imidazolyl)ethyl]-2-pyrimidinyl}methanol] | < 10 nM
Cc1nc(CC(c2c[nH]cn2)c2cccc(C)c2C)no1 (centres unmarked) [Compound 243, 3-[2-(4-imidazolyl)-2-(2,3-xylyl)ethyl]-5-methyl-1,2,4-oxadiazole-formic acid (1/1)] | 50 to 500 nM
COc1ccc(CC(c2c[nH]cn2)c2cccc(C)c2C)cn1 (centres unmarked) [Compound 273, 4-[2-(6-methoxy-3-pyridyl)-1-(2,3-xylyl)ethyl]imidazole] | < 10 nM
CN1CCc2cccc(C(Cc3cn(C)nn3)c3c[nH]cn3)c21 (centres unmarked) [Compound 387, 4-[2-(4-imidazolyl)-2-(1-methyl-7-indolinyl)ethyl]-1-methyl-1H-1,2,3-triazole] | 50 to 500 nM
Cn1cc(CC(c2c[nH]cn2)c2cccc3c2OCC3)nn1 (centres unmarked) [Compound 258, 4-[2-(2,3-dihydro-1-benzofuran-7-yl)-2-(4-imidazolyl)ethyl] 1-methyl-1H-1,2,3-triazole] | 10 to 50 nM
Cc1nccc(CC(c2ccc3cccnc3c2)c2c[nH]cn2)n1 (centres unmarked) [Compound 161, 4-[2-(4-imidazolyl)-2-(7-quinolyl)ethyl]-2-methylpyrimidine] | > 500 nM
Cc1nccc(CC(c2c[nH]cn2)c2cccc3c2cnn3C)n1 (centres unmarked) [Compound 167, 4-[1-(4-imidazolyl)-2-(2-methyl-4-pyrimidinyl)ethyl]-1-methyl-1H-indazole] | < 10 nM
Cn1ncc2c(C(Cc3cocn3)c3c[nH]cn3)cccc21 (centres unmarked) [Compound 378, 4-[1-(4-imidazolyl)-2-(1,3-oxazol-4-yl)ethyl]-1-methyl-1H-indazole] | 50 to 500 nM
Cc1nccc(C[C@H](c2c[nH]cn2)c2cccc3c2OCCCO3)n1 [Compound 352, 4-[(S)-2-(3,4-dihydro-2H-1,5-benzodioxepin-6-yl)-2-(4-imidazolyl)ethyl]-2-methylpyrimidine] | > 500 nM
Cc1cccc(C(Cc2ccnc(F)c2)c2c[nH]cn2)c1F (centres unmarked) [Compound 321, 4-[2-(2-fluoro-4-pyridyl)-1-(2-fluoro-3-tolyl)ethyl]imidazole] | < 10 nM
Cc1cc(CC(c2c[nH]cn2)c2cccc(C)c2C)ccn1 (centres unmarked) [Compound 255, 4-[2-(2-methyl-4-pyridyl)-1-(2,3-xylyl)ethyl]imidazole] | < 10 nM
Cc1cc(C[C@@H](c2c[nH]cn2)c2cccc(C)c2F)ncn1 [Compound 143, 4-[(R)-2-(2-fluoro-3-tolyl)-2-(4-imidazolyl)ethyl]-6-methylpyrimidine] | < 10 nM
COc1cc(Cl)cc(CC(c2c[nH]cn2)c2cccc3c2OCC3)n1 (centres unmarked) [Compound 393, 4-[2-(4-chloro-6-methoxy-2-pyridyl)-1-(2,3-dihydro-1-benzofuran-7-yl)ethyl]imidazole] | 10 to 50 nM
Cc1cccc(C(Cc2ccc(C#N)nc2)c2c[nH]cn2)c1C (centres unmarked) [Compound 145, 5-[2-(4-imidazolyl)-2 (2,3-xylyl)ethyl]-2-pyridinecarbonitrile] | 10 to 50 nM
Cc1cccc(C(Cc2ccnn2C)c2c[nH]cn2)c1Cl (centres unmarked) [Compound 399, 5-[2-(2-chloro-3-tolyl)-2-(4-imidazolyl)ethyl]-1-methylpyrazole] | < 10 nM
Cc1cccc(C(Cc2cccnc2C)c2c[nH]cn2)c1C (centres unmarked) [Compound 254, 4-[2-(2-methyl-3-pyridyl)-1-(2,3-xylyl)ethyl]imidazole] | 10 to 50 nM
c1cc2c(c([C@@H](Cc3cocn3)c3c[nH]cn3)c1)OCCO2 [Compound 383, 4-[(R)-2-(2,3-dihydro-1,4-benzodioxin-5-yl)-2-(4-imidazolyl)ethyl] 1,3-oxazole] | > 500 nM
Cc1cccc([C@@H](Cc2ccn(C(F)F)n2)c2c[nH]cn2)c1C [Compound 282, 3-[(R)-2-(4-imidazolyl)-2-(2,3-xylyl)ethyl]-1-(difluoromethyl)pyrazole] | > 500 nM
Fc1c(Cl)cccc1C(Cc1cnco1)c1c[nH]cn1 (centres unmarked) [Compound 392, 5-[2-(3-chloro-2-fluorophenyl)-2-(4-imidazolyl)ethyl]-1,3-oxazole] | 10 to 50 nM

— US20260042769A1, “TRIARYL AGONISTS OF ALPHA-2 ADRENERGIC RECEPTORS” (ALCEPTOR THERAPEUTICS, INC., priority 2023, published 2026)
